Oligonucleotides are written 5' to 3', each unit as a sugar letter and its base; * is a phosphorothioate linkage, no mark a phosphodiester; rarer units and linkages stand in square brackets, end groups in braces. Plain capitals give the bases only. e = 2'-O-(2-methoxyethyl) (MOE); [5mC] = 5-methylcytosine; d = 2'-deoxy (DNA)
Columns and labels:
Mouse STAT3 protein = test: STAT3 protein levels in BCL1 cells by Western blot, dose response; type: cell-based; conditions: compared with mismatch control
Description: ISIS 17152 (SEQ ID. NO. 99) was chosen for further study. The effect of this oligonucleotide on protein levels was determined by Western blot. ISIS 23177 (SEQ ID NO. 106), a 3 base mismatch, was used as a control. BCL1 cells were grown, treated and processed as described in Example 2.
Nuclear extracts from primary B cells and B lymphoma cell lines were prepared as described in Karras, J. G., et al. (J. Exp. Med., 1997, 185, 1035-1042).
Western blotting was performed as described in Karras, J. G. et al. (J. Immunol., 1996, 157, 2299). STAT1 and STAT3 antibodies were obtained from UBI (Lake Placid, N.Y.).

B16 cells = test: Apoptosis in B16 cells, Annexin V-PE staining and flow cytometry; type: cell-based, mouse
Description: (§1) Cells were treated with ISIS 17152, targeted to mouse STAT3, or the 3-base mismatch control, ISIS 28084 ([…]; SEQ ID NO: 151). Cells were transfected with oligonucleotide using LipofectAMINE PLUSJ reagent (GibcoBRL). Oligonucleotide was pre-complexed with LipofectAMINE PLUSJ by adding the oligonucleotide to 100 μl serum-free RPMI 1640 medium, then 6 μl LipofectAMINE PLUSJ reagent was added, the sample was mixed well and incubated for 15 minutes at room temperature. An additional 4 μl of LipofectAMINE PLUSJ reagent was diluted to 100 μl in serum-free RPMI. This diluted LipofectAMINE PLUSJ was mixed with the pre-complexed oligonucleotide/LipofectAMINE PLUSJ mixture and incubated for 15 minutes at room temperature. 800 μl of serum-free RPMI 1640 was added, and the resulting oligonucleotide-LipofectAMINE PLUSJ-medium mixture (approximately 1 ml) was added to cells in a 6-well plate. After 3 hours incubation, 1 ml of RPMI 1640 supplemened with 20% fetal bovine serum was added. Oligonucleotide concentrations were 200 nM or 300 nM.
24 hours after transfection, cells were counted to determine the effect of antisense treatment on cell death. […]
Apoptosis in B16 cells was measured by staining with Annexin V-PE (Clontech) and flow cytometry analysis 48 hours after antisense treatment. […]

RANTES mRNA = test: Induction of chemokines in BCL1 cells, RNase protection assay: RANTES; type: cell-based, mouse; conditions: statement covers all three chemokines
Description: The effect of ISIS 17152 (SEQ ID. NO. 99) on chemokine levels was determined. BCL1 cells were grown, treated and processed as described in Example 2. Chemokine gene expression was induced in BCL1 cells by addition of […] of a CpG-containing oligonucleotide to the media 16 hours following antisense oligonucleotide electroporation. CpG-containing oligonucleotides are immune-stimulatory (Krieg, A. M., et al., Nature, 1995, 374, 546-549). The levels of chemokines were measured eight hours later using RNase protection assay as described in Example 2 with a mouse chemokine template set, Mck-5 (Pharmingen, San Diego, Calif.).

STAT3 protein = STAT3 protein in B16 cells, Western blot; type: cell-based, mouse; conditions: 200 nM or 300 nM, 24 hours after treatment
Description: as §1
24 hours after transfection, cells were counted to determine the effect of antisense treatment on cell death. Cells were harvested at 24 hours post transfection for western blot analysis and at 48 hours post-transfection for Annexin-V staining for apoptosis. […]

[1] = tested on: IgM secretion by BCL1 cells; test: BCL1 IgM secretion, ELISA; type: cell-based, mouse; conditions: compared with mismatch control
Description: The effect of ISIS 17152 (SEQ ID. NO. 99) on IgM secretion levels was determined. STAT3 has been implicated in regulation of IgM expression (Faris, M., et al., Immunology, 1997, 90, 350-357). BCL1 cells were grown, treated and processed as described in Example 2.
1×10^6 BCL1 cells were incubated in 12-well plates in 2 mL complete RPMI following electroporation. Supernatant was replaced at 24 hour post electroporation with fresh medium. 48 hours later, supernatants were harvested, centrifuged to remove cells, and assayed for IgM content using the OPT-EIA™ ELISA kit (Pharmingen, San Diego, Calif.) and capture and detecting antibodies for mouse IgM (Southern Biotechnology, Birmingham, Ala.).

BCL1 cells = test: BCL1 cell proliferation, [3H]-thymidine incorporation; type: cell-based, mouse; conditions: summary of Table 6
Description: The effect of ISIS 17152 (SEQ ID NO. 99) on BCL1 proliferation was determined. BCL1 cells contain constitutively active STAT3 which is thought to be responsible for their proliferation. BCL1 cells were grown, treated and processed as described in Example 2.
1×10^5 BCL1 cells were incubated in 96-well plates in […] complete RPMI following electroporation. Cultures were pulsed with […] of [^3H]-thymidine for the last 8 hours of culture and cells were harvested and analyzed for thymidine incorporation as described in Francis, D. A. et al. (Int. Immunol., 1995, 7, 151-161) 48 hours after electroporation.

Mouse B16 melanoma cells = test: Cell number of B16 melanoma cells after antisense treatment; type: cell-based; conditions: 24 hours after transfection
Description: Mouse B16 melanoma cells were grown in RPMI 1640 (Life Technologies, Inc., Grand Island, N.Y.) medium supplemented with 10% fetal bovine serum, 2 mM L-glutamine, 1 mM sodium pyruvate, 1% MEM nonessential amino acids and 100 IU/ml penicillin/streptomycin.
as §1
24 hours after transfection, cells were counted to determine the effect of antisense treatment on cell death. Cells were harvested at 24 hours post transfection for western blot analysis and at 48 hours post-transfection for Annexin-V staining for apoptosis.

## AAAAAGTGCCCAGATTGCCC (antisense eA*eA*eA*eA*eA*dG*dT*dG*dC*dC*dC*dA*dG*dA*dT*eT*eG*e[5mC]*e[5mC]*e[5mC]) [ISIS 17152]
Mouse STAT3 protein
  reducing STAT3 protein levels (in words): significantly better at reducing STAT3 protein levels than the mismatch control
B16 cells; 48 hours after antisense treatment
  cells staining positive for Annexin-V: 29.84%
B16 cells; versus mock and control oligonucleotide
  increase in apoptotic cells: nearly threefold increase
RANTES mRNA
  expression of the chemokines, RANTES, MIP-1 and MIP-1 (in words): able to induce the expression of the chemokines
STAT3 protein
  STAT3 protein production (in words): significantly reduced
[1]
  reducing IgM secretion (in words): significantly better at reducing IgM secretion than the mismatch control
BCL1 cells
  reduction of BCL1 cell proliferation: approximately 50%
Mouse B16 melanoma cells; 200 nM, Expt 1
  cell number: 3.8 × 10^5
Mouse B16 melanoma cells; 200 nM, Expt 2
  cell number: 6.8 × 10^5
Mouse B16 melanoma cells; 200 nM, Expt 3
  cell number: 1.8 × 10^5
Mouse B16 melanoma cells; 300 nM, Expt 2
  cell number: 3.5 × 10^5
Mouse B16 melanoma cells; 300 nM, Expt 3
  cell number: 2.2 × 10^5
